Assay results from patent US8575201B2 (Boehringer Ingelheim International GmbH, priority 2010, dated 2013).

Experiments:
[1] = molecular target: recombinant human FLAP protein (Homo sapiens (Human), UniProt P20292); experiment: FLAP binding assay (Scintillation Proximity Assay, displacement of [125I]L-691,831); settings: read-out: FLAP SPA IC50
Outline: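 Scintillation proximity displacement of an iodinated (125I) FLAP inhibitor by test compounds, using 100,000×g membrane fraction from lysed cells. Final beads 200 μg/well and protein 5 μg/well; plates shaken 2 h before reading.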

[2] = test system: synthesis of LTB4 in human whole blood; experiment: Human whole blood LTB4 production inhibition assay; type: cell-based; settings: calcimycin stimulated, read-out: hWB LTB4 IC50
Outline: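 Heparinized human whole blood preincubated with compound 15 min at 37 °C, then stimulated with calcimycin (20 μM final) for 30 min at 37 °C. Plasma LTB4 measured after low-speed centrifugation by antibody-based homogeneous time-resolved fluorescence.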

recombinant human FLAP protein, sequence (P20292 whole entry): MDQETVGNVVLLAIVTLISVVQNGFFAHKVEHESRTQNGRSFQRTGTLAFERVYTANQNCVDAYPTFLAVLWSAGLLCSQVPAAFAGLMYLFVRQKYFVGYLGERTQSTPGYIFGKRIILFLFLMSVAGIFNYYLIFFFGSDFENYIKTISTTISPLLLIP

| Structure (SMILES) | IC50 [1] | IC50 [2] |
| --- | --- | --- |
| Nc1ncc(-c2ccc(C3(c4noc(N5CCCC5)n4)CCC3)cn2)cn1 [Example 76, 5-(5-{1-[5-(pyrrolidin-1-yl)-1,2,4-oxadiazol-3-yl]cyclobutyl}pyridin-2-yl)pyrimidin-2-amine] | 92 nM | 920 nM |
| Cn1cccc(-c2nc(C3(c4ccc(-c5cnc(N)nc5)nc4)CCC3)no2)c1=O [Example 77, 3-(3-{1-[6-(2-aminopyrimidin-5-yl)pyridin-3-yl]cyclobutyl}-1,2,4-oxadiazol-5-yl)-1-methylpyridin-2(1H)-one] | 51 nM | 490 nM |
| Cc1n[nH]cc1-c1nc(C2(c3ccc(-c4cnc(N)nc4)nc3)CCC2)no1 [Example 78, 5-(5-{1-[5-(3-methyl-1H-pyrazol-4-yl)-1,2,4-oxadiazol-3-yl]cyclobutyl}pyridin-2-yl)pyrimidin-2-amine] | 4.7 nM | 220 nM |
| COC(=O)c1ccc(-c2nc(C3(c4ccc(-c5cnc(N)nc5)nc4)CCC3)no2)cn1 [Example 81, methyl 5-(3-{1-[6-(2-aminopyrimidin-5-yl)pyridin-3-yl]cyclobutyl}-1,2,4-oxadiazol-5-yl)pyridine-2-carboxylate] | 25 nM | 790 nM |
| CC(C)(O)c1ccc(-c2nc(C3(c4ccc(-c5cnc(N)nc5)nc4)CCC3)no2)cn1 [Example 82, 2-[5-(3-{1-[6-(2-aminopyrimidin-5-yl)pyridin-3-yl]cyclobutyl}-1,2,4-oxadiazol-5-yl)pyridin-2-yl]propan-2-ol] | 17 nM | 480 nM |
| N#Cc1ccc(-c2nc(C3(c4ccc(-c5cnc(N)nc5)nc4)CCC3)no2)cn1 [Example 83, 5-(3-{1-[6-(2-aminopyrimidin-5-yl)pyridin-3-yl]cyclobutyl}-1,2,4-oxadiazol-5-yl)pyridine-2-carbonitrile] | 52 nM | 410 nM |
| Nc1ncc(-c2ccc(C3(c4noc(-c5cccnc5Cl)n4)CCC3)cn2)cn1 [Example 84, 5-(5-{1-[5-(2-chloropyridin-3-yl)-1,2,4-oxadiazol-3-yl]cyclobutyl}pyridin-2-yl)pyrimidin-2-amine] | 4.1 nM | 280 nM |
| COc1ccncc1-c1nc(C2(c3ccc(-c4cnc(N)nc4)nc3)CCC2)no1 [Example 86, 5-(5-{1-[5-(4-methoxypyridin-3-yl)-1,2,4-oxadiazol-3-yl]cyclobutyl}pyridin-2-yl)pyrimidin-2-amine] | 18 nM | 1100 nM |
| Nc1ncc(-c2ccc(C3(c4noc(-c5ccncc5)n4)CCC3)cn2)cn1 [Example 87, 5-(5-{1-[5-(pyridin-4-yl)-1,2,4-oxadiazol-3-yl]cyclobutyl}pyridin-2-yl)pyrimidin-2-amine] | 55 nM | 1000 nM |
| Nc1ncc(-c2ccc(C3(c4noc(-c5cnccc5Cl)n4)CCC3)cn2)cn1 [Example 88, 5-(5-{1-[5-(4-chloropyridin-3-yl)-1,2,4-oxadiazol-3-yl]cyclobutyl}pyridin-2-yl)pyrimidin-2-amine] | 7.3 nM | 490 nM |
| Nc1ncc(-c2ccc(C3(c4noc(-c5ccc(N6CCOCC6)nc5)n4)CCC3)cn2)cn1 [Example 89, 5-[5-(1-{5-[6-(morpholin-4-yl)pyridin-3-yl]-1,2,4-oxadiazol-3-yl}cyclobutyl)pyridin-2-yl]pyrimidin-2-amine] | 2.7 nM | 180 nM |
| COc1cc(-c2nc(C3(c4ccc(-c5cnc(N)nc5)nc4)CCC3)no2)ccn1 [Example 93, 5-(5-{1-[5-(2-methoxypyridin-4-yl)-1,2,4-oxadiazol-3-yl]cyclobutyl}pyridin-2-yl)pyrimidin-2-amine] | 9.6 nM | 400 nM |

Next, values leading:

| IC50 [1] | IC50 [2] | Structure (SMILES) |
| --- | --- | --- |
| 5.5 nM | 160 nM | Cc1cc(-c2nc(C3(c4ccc(-c5cnc(N)nc5)nc4)CCC3)no2)[nH]n1 [Example 80, 5-(5-{1-[5-(3-methyl-1H-pyrazol-5-yl)-1,2,4-oxadiazol-3-yl]cyclobutyl}pyridin-2-yl)pyrimidin-2-amine] |
| 21 nM | 1000 nM | Cc1ncccc1-c1nc(C2(c3ccc(-c4cnc(N)nc4)nc3)CCC2)no1 [Example 85, 5-(5-{1-[5-(2-methylpyridin-3-yl)-1,2,4-oxadiazol-3-yl]cyclobutyl}pyridin-2-yl)pyrimidin-2-amine] |
| 7 nM | 140 nM | Nc1ncc(-c2ccc(C3(c4noc(-c5cn[nH]c5)n4)CCC3)cn2)cn1 [Example 90, 5-(5-{1-[5-(1H-pyrazol-4-yl)-1,2,4-oxadiazol-3-yl]cyclobutyl}pyridin-2-yl)pyrimidin-2-amine] |
| 24 nM | 330 nM | Nc1ncc(-c2ccc(C3(c4noc(-c5ccnc(O)c5)n4)CCC3)cn2)cn1 [Example 91, 4-(3-{1-[6-(2-aminopyrimidin-5-yl)pyridin-3-yl]cyclobutyl}-1,2,4-oxadiazol-5-yl)pyridin-2-ol] |
| 130 nM | 2200 nM | Nc1ncc(-c2ccc(C3(c4noc(-c5ccncn5)n4)CCC3)cn2)cn1 [Example 92, 5-(5-{1-[5-(pyrimidin-4-yl)-1,2,4-oxadiazol-3-yl]cyclobutyl}pyridin-2-yl)pyrimidin-2-amine] |
| 8.1 nM | 650 nM | Cc1nc(C)c(-c2nc(C3(c4ccc(-c5cnc(N)nc5)nc4)CCC3)no2)s1 [Example 94, 5-(5-{1-[5-(2,4-dimethyl-1,3-thiazol-5-yl)-1,2,4-oxadiazol-3-yl]cyclobutyl}pyridin-2-yl)pyrimidin-2-amine] |
| 29 nM | > 5000 nM | Nc1ncc(-c2ccc(C3(c4noc(-c5ccc[nH]c5=O)n4)CCC3)cn2)cn1 [Example 95, 3-(3-{1-[6-(2-aminopyrimidin-5-yl)pyridin-3-yl]cyclobutyl}-1,2,4-oxadiazol-5-yl)pyridin-2(1H)-one] |
| 7.3 nM | 1100 nM | COc1ccc(-c2nc(C3(c4ccc(-c5cnc(N)nc5)nc4)CCC3)no2)c(OC)n1 [Example 96, 5-(5-{1-[5-(2,6-dimethoxypyridin-3-yl)-1,2,4-oxadiazol-3-yl]cyclobutyl}pyridin-2-yl)pyrimidin-2-amine] |
| 19 nM | > 5000 nM | Cc1ccc(-c2nc(C3(c4ccc(-c5cnc(N)nc5)nc4)CCC3)no2)c(O)n1 [Example 97, 3-(3-{1-[6-(2-aminopyrimidin-5-yl)pyridin-3-yl]cyclobutyl}-1,2,4-oxadiazol-5-yl)-6-methylpyridin-2-ol] |
| 110 nM | > 5000 nM | Nc1ncc(-c2ccc(C3(c4noc(-c5cnco5)n4)CCC3)cn2)cn1 [Example 98, 5-(5-{1-[5-(1,3-oxazol-5-yl)-1,2,4-oxadiazol-3-yl]cyclobutyl}pyridin-2-yl)pyrimidin-2-amine] |
| 7.5 nM | 660 nM | Nc1ncc(-c2ccc(C3(c4noc(-c5ccc(Cl)nc5)n4)CCC3)cn2)cn1 [Example 99, 5-(5-{1-[5-(6-chloropyridin-3-yl)-1,2,4-oxadiazol-3-yl]cyclobutyl}pyridin-2-yl)pyrimidin-2-amine] |
| 120 nM | 960 nM | Nc1ncc(-c2ccc(C3(c4noc(-c5cncnc5)n4)CCC3)cn2)cn1 [Example 100, 5-(5-{1-[5-(pyrimidin-5-yl)-1,2,4-oxadiazol-3-yl]cyclobutyl}pyridin-2-yl)pyrimidin-2-amine] |
| 24 nM | 820 nM | Cc1cc(-c2nc(C3(c4ccc(-c5cnc(N)nc5)nc4)CCC3)no2)ccn1 [Example 101, 5-(5-{1-[5-(2-methylpyridin-4-yl)-1,2,4-oxadiazol-3-yl]cyclobutyl}pyridin-2-yl)pyrimidin-2-amine] |
